The text below walks through data of patent publication US5292884A, “Cyclic hydroxamic acids” (Biomide Investment Limited Partnership, priority 1992, dated 1994).

SMILES strings stand for the structures.

What is called IC50 is the concentration needed to halve the response being measured. Higher therefore signals lower potency.

The target of the assay is T1, 12-lipoxygenase (Sus scrofa, UniProt P16469).
T1 construct: porcine Leukocyte cytosol in buffer; from tissue; host or cells: porcine leukocyte cytosol
T1 sequence (P16469 1-663): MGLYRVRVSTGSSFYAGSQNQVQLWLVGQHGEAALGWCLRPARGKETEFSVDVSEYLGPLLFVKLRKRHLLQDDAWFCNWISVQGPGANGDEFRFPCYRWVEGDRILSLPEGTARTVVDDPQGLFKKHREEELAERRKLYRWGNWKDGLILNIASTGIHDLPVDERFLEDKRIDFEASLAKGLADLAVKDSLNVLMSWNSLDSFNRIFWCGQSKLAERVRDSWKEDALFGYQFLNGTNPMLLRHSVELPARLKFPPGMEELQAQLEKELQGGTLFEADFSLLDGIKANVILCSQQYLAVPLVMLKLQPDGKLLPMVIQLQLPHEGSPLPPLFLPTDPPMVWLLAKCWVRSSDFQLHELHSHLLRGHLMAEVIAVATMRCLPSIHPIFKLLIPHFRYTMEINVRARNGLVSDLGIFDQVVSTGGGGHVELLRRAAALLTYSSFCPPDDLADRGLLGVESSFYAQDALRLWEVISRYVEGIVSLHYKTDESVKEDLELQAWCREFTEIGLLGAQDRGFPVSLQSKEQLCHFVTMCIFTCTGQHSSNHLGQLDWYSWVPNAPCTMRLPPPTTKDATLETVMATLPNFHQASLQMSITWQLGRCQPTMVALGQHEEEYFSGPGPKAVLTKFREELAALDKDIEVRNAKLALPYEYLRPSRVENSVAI
As to the kind of experiment: 12-lipoxygenase inhibition in porcine leukocyte cytosol ([1-14C] arachidonic acid conversion to 12-HETE, TLC). The conditions noted are these: porcine leukocyte cytosol 0.075 mg/mL, pH 8.0, 5 min preincubation, 5 μM arachidonic acid, 15 min at 37° C. Type of assay: biochemical. The protocol:
The standard assay procedure is as follows:
Compounds of the present invention were added in 3 μL of DMSO at an appropriate concentration to porcine Leukocyte cytosol in buffer (final protein concentration of 0.075 mg/mL in 0.1M HEPES, 2 mM caCl2, 1 mM MgCl2, pH=8.0) and preincubated for 5 min at 37° C. [1-^14 C] arachidonic acid was added (final concentration of 5 μM) and the reactions were incubated for 15 min at 37° C. and terminated by the addition of HCl. Total reaction volume was 100 μL. Assays also included reduced glutathione in the assay at 25 μM or following the assay at 1 mM and/or cold carrier 12-HETE and arachidonic acid added at the end of the incubation at concentrations of 5 and 100 μM, respectively. Sample was extracted with water-saturated ethyl acetate and the extracts were spotted onto TLC plates. The plates were developed with dichloromethane/ethyl acetate/acetic acid in a ratio of 70:30:1. Under these conditions, the Rf's of 12-HETE and arachidonic acid are 0.30 and 0.45 , respectively. The percentage conversion to 12-HETE was calculated from the percentage of the total ^14 C on the TLC plate that coelutes with a standard of 12-HETE.
With `CCCCCCCCCCCCC1CCC(c2ccccc2)N(O)C1=O` (single isomer, unassigned) [1(ii), 3-Dodecyl-1-hydroxy-6-phenyl-piperidin-2-one], inhibition was half-maximal at 2 µM (IC50).

The compound `O=C1CC(CCCc2ccccc2)C(c2ccccc2)CN1O` (single isomer, unassigned) [1(uu), 1-Hydroxy-5-phenyl-4-(3-phenylpropyl)-piperidin-2-one] had an IC50 of 1.7 µM.

For the compound `CCCCCCCCCC[C@H]1C[C@H](c2ccccc2)CC(=O)N1O` (relative stereo) [1(c), trans-1-hydroxy-6-decyl-4-phenyl-piperidin-2-one], the IC50 turned out to be 0.7 µM.

In turn, `CCCCCCCC[C@H]1C[C@H](c2ccc3ccccc3c2)CC(=O)N1O` (relative stereo) [1(q), trans-1-hydroxy-4-(2-naphthyl)-6-octylpiperidin-2-one] gave an IC50 of 0.1 µM.

`O=C1C(CCCc2ccccc2)C(c2ccccc2)CCN1O` (stereo not shown) [1(hh), 1-Hydroxy-4-phenyl-3-(3-phenylpropyl)-piperidin-2-one]: the IC50 is 1.05 µM.

`O=C1CC(CCc2ccccc2)C(c2ccccc2)CN1O` (stereo not shown) [1(qq), 1-Hydroxy-5-phenyl-4-(2-phenylethyl)-piperidin-2-one] gave an IC50 of 1 µM.

The compound `CCCCCCCC[C@H]1C[C@H](c2cccc3ccccc23)CC(=O)N1O` (relative stereo) [1(o), trans-1-hydroxy-4-(1-naphthyl)-6-octylpiperidin-2-one] registered an IC50 of 0.13 µM.

Compound `O=C1C[C@H](c2ccccc2)C[C@H](CCCCCCCc2ccccc2)N1O` (relative stereo) [1(l), cis-1-hydroxy-4-phenyl-6-(7-pheylheptyl)-iperidin-2-one] came in with an IC50 of 0.5 µM.

`CCCCCCCCCC[C@@H]1CC[C@H](c2ccccc2)C(=O)N1O` (relative stereo) [1(v), cis-6-Decyl-1-hydroxy-3-phenyl-piperidin-2-one] yielded an IC50 of 1 µM.

Take `CCCCCCCCCCCC[C@@H]1C[C@H](Cc2ccccc2)CC(=O)N1O` (relative stereo) [1(ll), cis-4-Benzyl-6-dodecyl-1-hydroxy-piperidin-2-one]: the IC50 amounted to 0.8 µM.

In turn, `CCCCCCCCCCCCCC[C@@H]1C[C@H](c2ccccc2)CC(=O)N1O` (relative stereo) [1(f), cis-1-hydroxy-4-phenyl-6-tetradecyl-piperidin-2-one] had an IC50 of 0.3 µM.

In turn, `CCCCCCCCCC[C@@H]1[C@@H](c2ccccc2)CCC(=O)N1O` (relative stereo) [1(y), trans-6-Decyl-hydroxy-5-phenyl-piperidin-2-one] showed an IC50 of 0.3 µM.

The compound `O=C1[C@@H](CCCc2ccccc2)[C@@H](c2ccccc2)CCN1O` (relative stereo) [1(t), cis-1-hydroxy-4-phenyl-3-(3-phenylpropyl)-piperidin-2-one] had an IC50 of 0.9 µM.

The compound `O=C1C(Cc2cccc3ccccc23)C(c2ccccc2)CCN1O` (stereo not shown) [1(ee), 1-Hydroxy-3-(1-naphthyl-methyl)-4-phenyl-piperidin-2-one] returned an IC50 of 1 µM.

Regarding `CCCCCCCCCCCC[C@H]1C[C@H](c2ccccc2)CC(=O)N1O` (relative stereo) [1(e), trans-1-hydroxy-6-dodecyl-4-phenylpiperidin-2-one], the IC50 came out at 0.5 µM.

The compound `CCCCCCCCC[C@@H]1CC(=O)N(O)C[C@@H]1c1ccccc1` (relative stereo) [1(ss), cis-1-Hydroxy-4-nonyl-5-phenyl-piperidin-2-one] registered an IC50 of 0.4 µM.

In turn, `CCCCCCCC[C@@H]1C[C@H](c2ccccc2)CC(=O)N1O` (relative stereo) [Compound 1, cis-1-hydroxy-6-octyl-4-phenylpiperidin-2-one] yielded an IC50 of 0.42 µM.

Turning to `O=C1C[C@@H](c2ccccc2)C[C@@H](CCCc2ccccc2)N1O` (relative stereo) [1(j), cis-1-hydroxy-4-phenyl-6-(3-phenylpropyl)-piperidin-2-one], the IC50 turned out to be 0.28 µM.

Compound `CCCCCCCCCCCC[C@@H]1[C@H](c2ccccc2)CCC(=O)N1O` (relative stereo) [1(aa), cis-6-Dodecyl-1-hydroxy-5-phenyl-piperidin-2-one] gave an IC50 of 0.8 µM.

The compound `O=C1CC(CCc2ccccc2)C(Cc2ccccc2)CN1O` (stereo not shown) [1(rr), 5-Benzyl-1-hydroxy-4-(2-phenylethyl)-piperidin-2-one] came in with an IC50 of 1.6 µM.

On to `CCCCCCCCCCCCCC[C@@H]1C[C@H](Cc2ccccc2)CC(=O)N1O` (relative stereo) [1(nn), cis-4-Benzyl-1-hydroxy-6-tetradecyl-piperidin-2-one], for which 0.4 µM corresponded to half-maximal inhibition (IC50).

On to `O=C1CCC(CCCc2ccccc2)C(CCCc2ccccc2)N1O` (stereo not shown) [1(fff), 1-Hydroxy-5,6-bis(3-phenyl-propyl)-piperidin-2-one], for which the IC50 was found to be 0.25 µM.

In turn, `O=C1CC(c2ccccc2)C(CCCc2ccccc2)CN1O` (stereo not shown) [1(zz), 1-Hydroxy-4-phenyl-5-(3-phenylpropyl)-piperidin-2-one] displayed an IC50 of 1.6 µM.

In turn, `O=C1C[C@@H](c2ccccc2)C[C@H](CCCc2ccccc2)N1O` (relative stereo) [1(k), trans-1-hydroxy-4-phenyl-6-(3-phenylpropyl)-piperidin-2-one] displayed an IC50 of 0.39 µM.

`CCCCCCCCCC[C@H]1C[C@H](Cc2ccccc2)CC(=O)N1O` (relative stereo) [1(kk), trans-4-Benzyl-6-decyl-1-hydroxy-piperidin-2-one] displayed an IC50 of 0.4 µM.

For the compound `O=C1C[C@@H](CCCc2ccccc2)C[C@H](c2ccccc2)N1O` (relative stereo) [1(eee), trans-1-Hydroxy-6-phenyl-4-(3-phenylpropyl)-piperidin-2-one], the IC50 came to 3 µM.

`O=C1C(CCCc2ccccc2)CC(c2ccccc2)CN1O` (stereo not shown) [1(aaa), 1-Hydroxy-5-phenyl-3-(3-phenylpropyl)-piperidin-2-one]: the midpoint of inhibition, the IC50, lay at 0.75 µM.

`CCCCCCCCCCCCCC[C@H]1C[C@H](c2ccccc2)CC(=O)N1O` (relative stereo) [1(g), trans-1-hydroxy-4-phenyl-6-tetradecyl-piperidine-2-one] gave an IC50 of 0.4 µM.

The compound `CCCCCCCCCCCC[C@H]1[C@H](c2ccccc2)CCC(=O)N1O` (relative stereo) [1(z), trans-6-Dodecyl-1-hydroxy-5-phenyl-piperidin-2-one] gave an IC50 of 0.8 µM.

For `O=C1[C@@H](CCCc2ccccc2)[C@H](c2ccccc2)CCN1O` (relative stereo) [1(u), trans-1-hydroxy-4-phenyl-3-(3-phenylpropyl)-piperidin-2-one], inhibition was half-maximal at 1.5 µM (IC50).

`O=C1C[C@@H](CCCc2ccccc2)C[C@@H](c2ccccc2)N1O` (relative stereo) [1(ddd), cis-1-Hydroxy-6-phenyl-4-(3-phenylpropyl)-piperidin-2-one]: the IC50 was determined as 4.2 µM.

Consider `CCCCCCCCCC[C@@H]1C[C@H](Cc2ccccc2)CC(=O)N1O` (relative stereo) [1(jj), cis-4-Benzyl-6-decyl-1-hydroxy-piperidin-2-one], for which half-maximal inhibition (IC50) was put at 0.25 µM.

In turn, `CCCCCCCCCC[C@@H]1[C@H](c2ccccc2)CCC(=O)N1O` (relative stereo) [1(x), cis-6-Decyl-1-hydroxy-5-phenyl-piperidin-2-one] gave a half-maximal inhibitory concentration (IC50) of 0.2 µM.

Regarding `O=C1C(c2ccccc2)CC(CCCc2ccccc2)CN1O` (stereo not shown) [1(yy), 1-Hydroxy-3-phenyl-5-(3-phenylpropyl)-piperidin-2-one], the IC50 came to 0.52 µM.
